Assay results reported in ChEMBL document CHEMBL5360655, “Design, Synthesis, and Biological Evaluation of Novel P2X7 Receptor Antagonists for the Treatment of Septic Acute Kidney Injury” (J Med Chem, 2023).
Activity calls are given as the source filed them. No cut-off for these calls is given here.

Key:
[1] = target: T1, P2X purinoceptor 7 (Homo sapiens) (UniProt Q99572); test: Antagonist activity at human P2X7 receptor expressed in HEK293 cells assessed as inhibition of ATP-induced receptor pore formation at 10 uM by propidium iodide dye uptake based fluorescence analysis; assay type: cell-based
T1 sequence (whole entry): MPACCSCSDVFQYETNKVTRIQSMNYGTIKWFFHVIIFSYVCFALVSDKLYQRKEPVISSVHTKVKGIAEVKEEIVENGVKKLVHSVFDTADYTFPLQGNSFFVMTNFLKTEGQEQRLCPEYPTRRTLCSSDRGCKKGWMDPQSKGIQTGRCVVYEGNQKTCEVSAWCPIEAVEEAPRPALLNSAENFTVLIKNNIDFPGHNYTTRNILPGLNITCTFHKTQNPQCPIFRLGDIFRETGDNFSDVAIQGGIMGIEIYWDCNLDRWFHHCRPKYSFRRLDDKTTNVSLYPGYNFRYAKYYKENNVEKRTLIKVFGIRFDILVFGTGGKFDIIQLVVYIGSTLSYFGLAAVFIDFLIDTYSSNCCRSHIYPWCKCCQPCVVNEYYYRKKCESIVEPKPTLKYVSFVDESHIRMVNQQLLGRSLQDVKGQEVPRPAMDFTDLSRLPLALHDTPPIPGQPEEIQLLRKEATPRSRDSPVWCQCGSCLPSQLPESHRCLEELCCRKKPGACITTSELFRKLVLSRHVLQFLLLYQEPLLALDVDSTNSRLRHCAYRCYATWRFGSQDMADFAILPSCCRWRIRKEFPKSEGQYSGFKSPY

[2] = target: T2, P2X purinoceptor 7 (Mus musculus) (UniProt Q9Z1M0); test: Antagonist activity at mouse P2X7 receptor expressed in HEK293 cells assessed as inhibition of ATP-induced receptor pore formation at 10 uM by propidium iodide dye uptake based fluorescence analysis; assay type: cell-based
T2 sequence (whole entry): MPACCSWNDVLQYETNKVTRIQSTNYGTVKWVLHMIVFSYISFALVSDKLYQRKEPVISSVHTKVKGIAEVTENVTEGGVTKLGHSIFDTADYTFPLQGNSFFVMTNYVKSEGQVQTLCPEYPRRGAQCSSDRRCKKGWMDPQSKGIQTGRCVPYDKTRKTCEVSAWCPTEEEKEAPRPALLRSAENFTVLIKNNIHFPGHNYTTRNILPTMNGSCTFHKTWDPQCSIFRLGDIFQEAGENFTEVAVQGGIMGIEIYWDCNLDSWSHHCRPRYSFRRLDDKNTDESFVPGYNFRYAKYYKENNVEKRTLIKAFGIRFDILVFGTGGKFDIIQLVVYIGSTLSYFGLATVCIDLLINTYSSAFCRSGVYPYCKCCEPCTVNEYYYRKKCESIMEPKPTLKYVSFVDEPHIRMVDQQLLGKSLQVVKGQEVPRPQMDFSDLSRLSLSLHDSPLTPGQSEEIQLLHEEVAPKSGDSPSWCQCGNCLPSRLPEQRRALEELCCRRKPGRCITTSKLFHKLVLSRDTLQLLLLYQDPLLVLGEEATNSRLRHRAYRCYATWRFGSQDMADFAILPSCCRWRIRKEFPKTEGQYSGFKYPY

[3] = target: T2, P2X purinoceptor 7 (Mus musculus); test: Antagonist activity at mouse P2X7 receptor expressed in HEK293 cells assessed as inhibition of ATP-induced receptor pore formation at 1 uM by propidium iodide dye uptake based fluorescence analysis; assay type: cell-based
[4] = target: T1, P2X purinoceptor 7 (Homo sapiens); test: Antagonist activity at human P2X7 receptor expressed in HEK293 cells assessed as inhibition of ATP-induced receptor pore formation at 200 nM by propidium iodide dye uptake based fluorescence analysis; assay type: cell-based
[5] = target: T2, P2X purinoceptor 7 (Mus musculus); test: Antagonist activity at mouse P2X7 receptor expressed in HEK293 cells assessed as inhibition of ATP-induced receptor pore formation at 200 nM by propidium iodide dye uptake based fluorescence analysis; assay type: cell-based
[6] = target: T1, P2X purinoceptor 7 (Homo sapiens); test: Antagonist activity at human P2X7 receptor expressed in HEK293 cells assessed as inhibition of ATP-induced receptor pore formation at 1 uM by propidium iodide dye uptake based fluorescence analysis; assay type: cell-based
[7] = Half life in human liver microsomes; assay type: ADME, Microsome
P2X purinoceptor 7 [8] = target: T3, P2X purinoceptor 7 (Homo sapiens, UniProt Q99572); test: Antagonist activity at human P2X7 receptor expressed in HEK293 cells assessed as inhibition of ATP-induced receptor pore formation by propidium iodide dye uptake based fluorescence analysis; assay type: cell-based
T3 sequence (Q99572 whole entry): T1 sequence (whole entry)

[9] = Intrinsic clearance in human liver microsomes; assay type: ADME, Microsome; details: read-out: CLH
[10] = Intrinsic clearance in mouse liver microsomes; assay type: ADME, Microsome; details: read-out: CLH
P2X purinoceptor 7 [11] = target: T4, P2X purinoceptor 7 (Mus musculus, UniProt Q9Z1M0); test: Antagonist activity at mouse P2X7 receptor expressed in HEK293 cells assessed as inhibition of ATP-induced receptor pore formation by propidium iodide dye uptake based fluorescence analysis; assay type: cell-based
T4 sequence (Q9Z1M0 whole entry): T2 sequence (whole entry)

[12] = Half life in mouse liver microsomes; assay type: ADME, Microsome

inhibition [4] | inhibition [5] | inhibition [6] | inhibition ([3]; filed as antagonist) [%] | inhibition ([6]; filed as antagonist) [%] | IC50 (P2X purinoceptor 7 [11]) [nM] | Structure (SMILES) | other results
– | – | – | – | – | – | O=C(NCc1cn(-c2cc(Cl)ccn2)nn1)c1ccc(C(F)(F)F)cc1Cl | inhibition ([1]; filed as antagonist): 45.1%; inhibition [2]: 39.3%
– | – | – | – | – | – | O=C(NCc1cn(-c2cc(Cl)ccn2)nn1)c1ccc(Cl)cc1 | inhibition [1]: inactive; inhibition ([2]; filed as antagonist): 62.8%
– | – | – | – | – | – | O=C(NCc1cn(-c2cc(Cl)ccn2)nn1)c1cccc(C(F)(F)F)c1Cl | inhibition ([1]; filed as antagonist): 46.5%; inhibition [2]: 13.2%
13.4% | 17.8% | 23.3% | – | – | – | Cc1cc(F)ccc1-c1ccc(Cl)c(C(=O)NCc2cn(-c3cc(Cl)ccn3)nn2)c1 | inhibition [3]: 9.2%
26.6% | – | – | 89.8 | 52.3 | 93.3 | CS(=O)(=O)Nc1ccc(-c2ncc(C(=O)NCc3cn(-c4cc(Cl)ccn4)nn3)s2)cc1 | half-life [7]: > 2 h; inhibition ([5]; filed as antagonist): 71.6%; IC50 (P2X purinoceptor 7 [8]): 340 nM; CLint scaled [9]: < 12 mL/min/kg; CLint scaled [10]: < 12 mL/min/kg; half-life [12]: > 2 h
– | – | – | – | – | – | Cc1cccc(Cl)c1C(=O)NCc1cn(-c2cc(Cl)ccn2)nn1 | inhibition [1]: inactive; inhibition [2]: 34.4%
20.7% | inactive | 39.2% | 59.3 | – | 409 | CC(C)Cc1ccc(-c2ccc(Cl)c(C(=O)NCc3cn(-c4cc(Cl)ccn4)nn3)c2)cc1 | –
22.9% | – | – | 71 | 40 | 99.1 | CS(=O)(=O)c1ccc(-c2ccc(Cl)c(C(=O)NCc3cn(-c4cc(Cl)ccn4)nn3)c2)cc1 | inhibition ([1]; filed as antagonist): > 50%; inhibition ([5]; filed as antagonist): 66%; inhibition ([2]; filed as antagonist): > 50%
10.1% | inactive | – | – | 53.8 | – | CS(=O)(=O)c1ccc(-c2nc(C(=O)NCc3cn(-c4cccc(Br)n4)nn3)cs2)cc1 | inhibition [3]: inactive; IC50 (P2X purinoceptor 7 [8]): 710 nM
24.4% | 19.1% | 21.9% | – | – | – | Nc1cccc(-c2ccc(Cl)c(C(=O)NCc3cn(-c4cc(Cl)ccn4)nn3)c2)c1 | inhibition [3]: inactive
12.4% | inactive | 33.3% | – | – | – | CS(=O)(=O)c1ccc(-c2ncc(C(=O)NCc3cn(-c4ccc(Br)cn4)nn3)s2)cc1 | inhibition [3]: inactive
– | – | – | 112 | 78.8 | 58.5 | O=C(NCc1cn(-c2cc(Cl)ccn2)nn1)c1cnc(-c2cccc(NS(=O)(=O)N3CCOCC3)c2)s1 | inhibition ([4]; filed as antagonist): 46.5%; half-life [7]: 1.2 h; inhibition ([5]; filed as antagonist): 82.4%; IC50 (P2X purinoceptor 7 [8]): 436 nM; CLint scaled [9]: 24.1 mL/min/kg; CLint scaled [10]: 215 mL/min/kg; half-life [12]: 0.423 h
inactive | inactive | inactive | 45.1 | – | – | CS(=O)(=O)Nc1ccc(-c2ccc(Cl)c(C(=O)NCc3cn(-c4cc(Cl)ccn4)nn3)c2)cc1 | –
inactive | 25.6% | inactive | 62.5 | – | 351 | O=C(NCc1cn(-c2cc(Cl)ccn2)nn1)c1cc(-c2cccc3cc[nH]c23)ccc1Cl | –
5% | – | – | 74 | 40.9 | 166 | CS(=O)(=O)c1ccc(-c2csc(C(=O)NCc3cn(-c4cc(Cl)ccn4)nn3)n2)cc1 | inhibition ([5]; filed as antagonist): 55.2%
inactive | inactive | 6.2% | 52 | – | 626 | CS(=O)(=O)c1ccc(-c2ncc(C(=O)NCc3cn(-c4cccc(Br)n4)nn3)s2)cc1 | –
30.8% | 32.8% | – | 74.7 | 76.9 | 1860 | CS(=O)(=O)Nc1cccc(-c2ccc(Cl)c(C(=O)NCc3cn(-c4cc(Cl)ccn4)nn3)c2)c1 | half-life [7]: 0.947 h; IC50 (P2X purinoceptor 7 [8]): 91.4 nM; CLint scaled [9]: 30.6 mL/min/kg; CLint scaled [10]: 65.4 mL/min/kg; half-life [12]: 1.39 h

inhibition [4] | inhibition [5] | inhibition [6] | inhibition ([3]; filed as antagonist) [%] | inhibition ([6]; filed as antagonist) [%] | IC50 (P2X purinoceptor 7 [11]) [nM] | Structure (SMILES) | other results
9.8% | 2.9% | – | – | 57.3 | – | Nc1cccc(-c2ncc(C(=O)NCc3cn(-c4cc(Cl)ccn4)nn3)s2)c1 | inhibition [3]: 35.2%; IC50 (P2X purinoceptor 7 [8]): 658 nM
– | – | – | – | – | – | O=C(NCc1cn(-c2cc(Cl)ccn2)nn1)c1ccccc1Cl | inhibition [1]: inactive; inhibition [2]: inactive
inactive | inactive | 6.8% | – | – | – | CS(=O)(=O)Nc1cccc(-c2ncc(C(=O)NCc3cn(-c4cc(Cl)ccn4)nn3)s2)c1 | inhibition [3]: 17.3%
22.1% | – | – | 92.6 | 56.3 | 344 | CC(C)S(=O)(=O)c1ccc(-c2ncc(C(=O)NCc3cn(-c4cc(Cl)ccn4)nn3)s2)cc1 | half-life [7]: 0.717 h; inhibition ([5]; filed as antagonist): 67.6%; IC50 (P2X purinoceptor 7 [8]): 659 nM; CLint scaled [9]: 40.4 mL/min/kg; CLint scaled [10]: 66.2 mL/min/kg; half-life [12]: 1.38 h
35.7% | inactive | – | 51 | 59.2 | 1790 | COc1ccc(-c2ccc(Cl)c(C(=O)NCc3cn(-c4cc(Cl)ccn4)nn3)c2)cc1OC | half-life [7]: 1.63 h; IC50 (P2X purinoceptor 7 [8]): 285 nM; CLint scaled [9]: 17.8 mL/min/kg; CLint scaled [10]: 216 mL/min/kg; half-life [12]: 0.421 h
11% | inactive | – | – | 51.6 | – | CS(=O)(=O)c1ccc(-c2nc(C(=O)NCc3cn(-c4ccc(Br)cn4)nn3)cs2)cc1 | inhibition [3]: inactive; IC50 (P2X purinoceptor 7 [8]): 811 nM
37.8% | – | – | 61.8 | 45.1 | 196 | CS(=O)(=O)c1ccc(-c2ncc(C(=O)NCc3cn(-c4cc(F)ccn4)nn3)s2)cc1 | inhibition ([5]; filed as antagonist): 68.4%
15.6% | inactive | 34.1% | – | – | – | O=C(NCc1cn(-c2cc(Cl)ccn2)nn1)c1cc(-c2cccc3[nH]ccc23)ccc1Cl | inhibition [3]: 10.2%
inactive | inactive | 36.7% | – | – | – | CS(=O)(=O)c1cccc(-c2ncc(C(=O)NCc3cn(-c4cc(Cl)ccn4)nn3)s2)c1 | inhibition [3]: 25.8%
inactive | inactive | – | 49.6 | 41.9 | – | CS(=O)(=O)c1cccc(-c2ccc(Cl)c(C(=O)NCc3cn(-c4cc(Cl)ccn4)nn3)c2)c1 | inhibition ([1]; filed as antagonist): > 50%; inhibition ([2]; filed as antagonist): > 50%
– | – | 39.2% | 60.7 | – | 188 | Nc1ccc(-c2ncc(C(=O)NCc3cn(-c4cc(Cl)ccn4)nn3)s2)cc1 | inhibition ([4]; filed as antagonist): 46.2%; inhibition ([5]; filed as antagonist): 51.7%
13.6% | – | 33.1% | 72.4 | – | 138 | O=C(NCc1cn(-c2cc(Cl)ccn2)nn1)c1cc(-c2cccc3ncccc23)ccc1Cl | inhibition ([1]; filed as antagonist): > 50%; inhibition ([5]; filed as antagonist): 66.7%; inhibition ([2]; filed as antagonist): > 50%
– | – | – | – | – | – | O=C(NCc1cn(-c2cc(Cl)ccn2)nn1)c1c(Cl)cccc1Br | inhibition [1]: 23.1%; inhibition ([2]; filed as antagonist): 62.3%
– | – | – | – | – | – | O=C(NCc1cn(-c2cc(Cl)ccn2)nn1)c1ccc(C(F)(F)F)c(Br)c1 | inhibition ([1]; filed as antagonist): 53.5%; inhibition [2]: 22.5%
inactive | 23.3% | 23.2% | 41.9 | – | – | CS(=O)(=O)c1ccc(-c2nc(C(=O)NCc3cn(-c4cc(F)ccn4)nn3)cs2)cc1 | –
– | – | – | – | – | – | O=C(NCc1cn(-c2cc(Cl)ccn2)nn1)c1cc(Br)ccc1Cl | inhibition ([1]; filed as antagonist): 59.3%; inhibition [2]: 10%
